The results in this text go back to patent US7947673B2, “Method of scintigraphy” (Novartis AG, priority 2005, dated 2011).

Data set [1] in a line: Determination of the affinity constant for gallium by potentiometric measurements. As to conditions: ionic strength 0.1 M KCl, temperature 25° C., in water. The data set is classed as physicochemical. An excerpt:
Determination of the affinity constant of 4-[3,5-bis(2-hydroxyphenyl)-[1,2,4]triazol-1-yl]benzoic acid for gallium
(§1) Chem. 2004, pp 4177-4192. Considering the affinity constants of 4-[3,5-bis(2-hydroxyphenyl)-[1,2,4]triazol-1-yl]benzoic acid for other metal ions according to Steinhauser et al., Eur. J. Inorg.

Data set [2] can be described thus: Ranking of affinity constants for metal ions. The data set is classed as physicochemical. As to conditions: other metal ion constants according to Steinhauser et al., Eur. J. Inorg. Chem. 2004.
Description: as §1

Take `O=C(O)c1ccc(-n2nc(-c3ccccc3O)nc2-c2ccccc2O)cc1` [4-[3,5-bis(2-hydroxyphenyl)-[1,2,4]triazol-1-yl]benzoic acid]: the “affinity constant for Gallium, log β120” value in data set [1] is reported as 33.8(1). Besides, in data set [2], the “ranking according to affinity constants for metal ions” value was “Fe(III) (highest affinity)>Ga(III)>Al(III)>>Cu(II)>>Zn(II)>>Mg(II)>Ca(II)”.
